Laboratory results from patent publication US6498181B1, “Synergistic tumorcidal response induced by histamine” (Maxim Pharmaceuticals, priority 1999, dated 2002).
Read-outs that look alike come from different tables or passages of the source. Blank lines part the entries; values can stand above or below the compound they belong to.

Legend:
[1] = test system: follicular non-Hodgkins lymphoma; details: cited from earlier work
[2] = Effect of duration of histamine administration on efficacy and side effects; details: administered over less than 1 to 3 minutes; anaphalaxis, heart failure, broncospasm, flushing, headache etc.
prostate tumor [3] = details: histamine s.c. 0.5-2.0 mg per day one week before surgery, blood histamine kept at at least about 0.2 μM after
Description: Accordingly, a pharmaceutically acceptable form of histamine in a sterile carrier solution is injected subcutaneously into a patient suffering from prostate cancer for one week (0.5-2.0 mg per day) prior to surgery.
Once the tumor is removed, circulating levels of blood histamine are maintained at at least about 0.2 μM until a complete response is observed. The tumorcidal response is evaluated by determining the level of PSA antigen in the patient over time according to conventional methods.

breast cancer = details: histamine s.c. 0.5-1.0 mg per injection 1-2 times per day with humanized 131I labeled p185^HER-2 antibody
Description: Accordingly, a pharmaceutically acceptable form of histamine in a sterile carrier solution is injected subcutaneously into the patient for one week (0.5-1.0 mg per injection 1-2 times per day) prior to antibody therapy.
The tumorcidal response is evaluated by determining the level of p185^HER-2 receptor in the patient over time according to conventional methods. (Quak and van Dongen, Eur. Arch. Otorhinolaryngol 251:1-5(1994)).

[4] = Description: Five patients suffering from acute myleogenous leukemia (AML) in remission received treatment with histamine dihydrochloride diluted in sterile sodium chloride. Histamine was administered morning and night at separate subcutaneous injection sites over a period of 21 consecutive days. The histamine was given as subcutaneous injections using 1 ml syringes containing […] of histamine per ml. The histamine treatment was given twice daily (morning and night) at a dosage of 0.4 to 0.7 mg histamine per injection (i.e., a daily total dose of histamine of 0.8 to 1.4 mg per day).
Peripheral blood venous samples were drawn in 10 ml heparinized test tubes before the onset of treatment and weekly thereafter. The samples were drawn at least 8 hours after the last injections of histamine. The concentration of histamine in the whole blood samples was analyzed by the use of a double antibody radioimmunoassay kit obtained from Bionerica, Inc., Newport Beach, Calif. 92663 (catalog number 1051). The manufacturer's instructions provided with the kit, dated June, 1989, were followed. Blood histamine levels were measured at the indicated times.

melanoma = details: histamine s.c. 0.5-1.0 mg per injection 1-2 times per day with vaccine of killed mixture of three melanomic cell lines
Text: (Quak and van Dongen, Eur. Arch. Otorhinolaryngol 251:1-5(1994)).

[5] = test system: human SK-N-SH neuroblastoma xenografts; details: histamine 0.5 mg per day tail vein with 10 μCi 131I labeled BW575/9 mAb, versus BW575/9 by itself
prostate tumor [6] = details: histamine s.c. 0.5-2.0 mg per day one week before external beam radiation (60-70 Gy), continued after
Description: The tumorcidal response is evaluated by determining the level of PSA antigen in the patient over time according to conventional methods.

Compound: ^131I labeled anti-B1 (Bexxar) mAb: 131I radiolabeled mAb raised to the CD-20 antigens expressed on the surface of mature B-cells
treatment outcome in clinical trials [1]: successful in treating follicular non-Hodgkins lymphoma

circulating blood histamine concentration following histamine administration ([4]; five AML patients in remission, s.c. 0.4 to 0.7 mg per injection twice daily, 21 days, samples at least 8 hours after last injection, less than 0.2 μM at start): at least 0.2 μM
Compound: NCCc1c[nH]cn1 [histamine]
side effects on rapid administration [2]: more pronounced and serious sides effects | tumorcidal response (PSA antigen level over time) (prostate tumor [3]): synergistic tumorcidal response is observed | tumorcidal response (p185^HER-2 receptor level over time) (breast cancer): synergistic tumorcidal response is observed | persistence of circulating blood histamine levels ([4]; even after histamine administration was discontinued): remained elevated for sustained periods of time | tumorcidal response (presence of melanoma over time) (melanoma): synergistic tumorcidal response is observed | tumorcidal response [5]: greater tumorcidal response | tumorcidal response (PSA antigen level over time) (prostate tumor [6]): synergistic tumorcidal response is observed
